Laboratory results: patent US20230183265A1, “Crystal Form of Macrocyclic Tyrosine Kinase Inhibitor and Preparation Method therefor” (SHANDONG XUANZHU PHARMA CO., LTD., priority 2020, published 2023)

Experiments:
[1] = Stability test of crystal form II; format: physicochemical
Procedure: Test sample: the crystal form II of the compound represented by Formula (I)
Test method: a suitable amount of the test samples was respectively weighed, and the appearance, moisture, content, related substances, XRD, and DSC of the test samples were investigated after being placed under the following conditions. The placing conditions were as follows.
Under the conditions of 60° C.±2° C., or of 25° C. RH92.5%, it was placed for 10 days, opened/closed, and a sample was taken for testing on the 10th day (the opened package is a flat weighing bottle, and the closed package is a low-density polyethylene bag or low-density polyethylene bag+composite film bag.
Under the conditions of 40° C. RH75%, it was placed for one month, opened/closed, and a sample was taken for testing after one month (the opened package is the flat weighing bottle, and the closed package is the low-density polyethylene bag or low-density polyethylene bag+composite film bag).
Moisture: it was determined according to the first 2 coulometric titration of the general rule 0832 (moisture determination) of the Chinese Pharmacopoeia (2015 Edition, Part IV).
XRD: it was determined according to the general rule 0451 (X-ray diffraction) of the Chinese Pharmacopoeia (2015 Edition, Part IV).
DSC: it was determined at a heating rate of 3° C./min, from 100° C. to 200° C.
Related substances and content: it was determined according to the general rule 0512 (HPLC) of the Chinese Pharmacopoeia (2015 Edition, Part IV).

[2] = Hygroscopicity test of crystal form II; format: physicochemical
Procedure: 2. Hygroscopicity Test of Crystal Form II
Test sample: the crystal form II of the compound represented by Formula (I).
Test method: it was determined according to the general rule 9103 (guidelines of drug hygroscopicity test) of the Chinese Pharmacopoeia (2015 Edition, Part IV): the test sample was placed under the condition of 25° C. and RH80% for 24 h (a sample bottle was placed under this condition for 24 h in advance), and results were shown in Table 2: […]

[3] = tested on: xenograft tumor of BaF3 LMNA-NTRK1-G595R stably transfected cell line; assay: Efficacy study on BaF3 LMNA-NTRK1-G595R stable cell strain subcutaneous xenograft model; format: in vivo, mouse (NOD-SCID); conditions: bid, p.o., 7 days
Procedure: Test substance: the compound represented by Formula (I), prepared according to the method in Embodiment 1.
A BaF3LMNA-NTRK1-G595R stably transfected cell line resuspended in a RPM11640 serum-free medium was inoculated subcutaneously on a right scapula of a mouse (nonobese diabetic-severe combined immunodeficiency disease (NOD-SCID)) at 1×10^6 cells/mouse (0.1 ml/mouse).
3.2 Grouping Administration
While the average tumor volume was about 500 mm^3, it was randomly divided into a vehicle group, a compound represented by Formula (I) (10/5/3/1 mg/kg, bid) group and a LOXO-195 group (30/10/3 mg/kg, bid).
3.3 Experimental Evaluation Index
1) Tumor growth inhibition rate TGI (%) • TGI (%)=(1−T/C)×100%
2) Tumor volume ratio of Treatment group/Control group TIC (%) • TIC (%)=TRTV/CRTV×100% • RTV=Vt/V0, herein Vt is the tumor volume on the t-th day after grouping, and V0 is the tumor volume on the day of grouping; TRTV: the average relative tumor volume in the administration group; and CRTV: the average relative tumor volume in the vehicle control group.

[4] = 25° C. RH 92.5% 10 days, Opened
[5] = 25° C. RH 92.5% 10 days, Polyethylene bag
[6] = 25° C. RH 92.5% 10 days, Polyethylene bag + composite film bag
[7] = 40° C. RH 75% 1M, Polyethylene bag
[8] = 40° C. RH 75% 1M, Polyethylene bag + composite film bag
[9] = 60° C. 10 days, Polyethylene bag
[10] = 60° C. 10 days, Polyethylene bag + composite film bag

SMILES: C[C@@H]1COc2ncc(F)cc2[C@H]2CCCN2c2ccc3ncn(c3n2)C(=O)N1 [Crystal form II, (2^2R,6R)-3^5-fluoro-6-methyl-1^3H-4-oxa-7-aza-1(5,3)-imidazo[4,5-b]pyridina-3(3,2)-pyridina-2(1,2)-p yrrolidinacyclooctaphan-8-one]
- Appearance ([1]; 0 day): Off-white
- Content ([1]; 0 day): 100.4%
- DSC ([1]; 0 day): 162.32 °C
- Moisture ([1]; 0 day): 0.088%
- Total related substance ([1]; 0 day): 0.09%
- Appearance [1, 4]: Off-white
- Content [1, 4]: 99.6%
- DSC [1, 4]: 162.23 °C
- Moisture [1, 4]: 0.13%
- Total related substance [1, 4]: 0.11%
- XRD [1, 4]: Same
- Appearance [1, 5]: Off-white
- Content [1, 5]: 99.5%
- DSC [1, 5]: 162.23 °C
- Moisture [1, 5]: 0.11%
- Total related substance [1, 5]: 0.10%
- XRD [1, 5]: Same
- Appearance [1, 6]: Off-white
- Content [1, 6]: 99.3%
- DSC [1, 6]: 162.27 °C
- Moisture [1, 6]: 0.11%
- Total related substance [1, 6]: 0.11%
- XRD [1, 6]: Same
- Appearance ([1]; 40° C. RH 75% 1M, Opened): Off-white
- Content ([1]; 40° C. RH 75% 1M, Opened): 100.8%
- DSC ([1]; 40° C. RH 75% 1M, Opened): 162.29 °C
- Moisture ([1]; 40° C. RH 75% 1M, Opened): 0.026%
- Total related substance ([1]; 40° C. RH 75% 1M, Opened): 0.10%
- XRD ([1]; 40° C. RH 75% 1M, Opened): Same
- Appearance [1, 7]: Off-white
- Content [1, 7]: 101.0%
- DSC [1, 7]: 162.18 °C
- Moisture [1, 7]: 0.033%
- Total related substance [1, 7]: 0.10%
- XRD [1, 7]: Same
- Appearance [1, 8]: Off-white
- Content [1, 8]: 101.0%
- DSC [1, 8]: 162.35 °C
- Moisture [1, 8]: 0.036%
- Total related substance [1, 8]: 0.10%
- XRD [1, 8]: Same
- Appearance ([1]; 60° C. 10 days, Opened): Off-white
- Content ([1]; 60° C. 10 days, Opened): 99.8%
- DSC ([1]; 60° C. 10 days, Opened): 162.24 °C
- Moisture ([1]; 60° C. 10 days, Opened): 0.18%
- Total related substance ([1]; 60° C. 10 days, Opened): 0.11%
- XRD ([1]; 60° C. 10 days, Opened): Same
- Appearance [1, 9]: Off-white
- Content [1, 9]: 100.0%
- DSC [1, 9]: 162.26 °C
- Moisture [1, 9]: 0.15%
- Total related substance [1, 9]: 0.11%
- XRD [1, 9]: Same
- Appearance [1, 10]: Off-white
- Content [1, 10]: 99.7%
- DSC [1, 10]: 162.23 °C
- Moisture [1, 10]: 0.13%
- Total related substance [1, 10]: 0.10%
- XRD [1, 10]: Same
- stability of the crystal form (in words) ([1]; 60° C. 10 days, 25° C. RH92.5% 10 days, 40° C. RH75% 1 month, opened/closed package): the stability of the crystal form is good
- Moisture absorption weight gain ([2]; 25° C. RH80% placing for 1 day): 0.002%
- hygroscopicity (in words) ([2]; 25° C. and RH80% for 24 h): no or almost no hygroscopicity

SMILES: C[C@@H]1CCc2ncc(F)cc2[C@H]2CCCN2c2ccn3ncc(c3n2)C(=O)N1 [LOXO-195, reference compound]
- T/C ([3]; experiment 1, 3 mg/Kg): 93.6%
- TGI ([3]; experiment 1, 3 mg/Kg): 6.4%
- T/C ([3]; experiment 1, 10 mg/Kg): 63.1%
- TGI ([3]; experiment 1, 10 mg/Kg): 36.9%
- T/C ([3]; experiment 2, 30 mg/Kg): 0%
- TGI ([3]; experiment 2, 30 mg/Kg): 100%
